Values after ≈ are worked out from the molar mass of the structure shown.
Experiments:
[1] = target: T1, Nuclear receptor ROR-gamma (Mus musculus, UniProt P51450); experiment: Inverse agonist activity at RORgamma in C57BL/6 mouse splenocytes assessed as reduction of IL-17 production after 2 days by ELISA; format: cell-based
T1 sequence (P51450 whole entry): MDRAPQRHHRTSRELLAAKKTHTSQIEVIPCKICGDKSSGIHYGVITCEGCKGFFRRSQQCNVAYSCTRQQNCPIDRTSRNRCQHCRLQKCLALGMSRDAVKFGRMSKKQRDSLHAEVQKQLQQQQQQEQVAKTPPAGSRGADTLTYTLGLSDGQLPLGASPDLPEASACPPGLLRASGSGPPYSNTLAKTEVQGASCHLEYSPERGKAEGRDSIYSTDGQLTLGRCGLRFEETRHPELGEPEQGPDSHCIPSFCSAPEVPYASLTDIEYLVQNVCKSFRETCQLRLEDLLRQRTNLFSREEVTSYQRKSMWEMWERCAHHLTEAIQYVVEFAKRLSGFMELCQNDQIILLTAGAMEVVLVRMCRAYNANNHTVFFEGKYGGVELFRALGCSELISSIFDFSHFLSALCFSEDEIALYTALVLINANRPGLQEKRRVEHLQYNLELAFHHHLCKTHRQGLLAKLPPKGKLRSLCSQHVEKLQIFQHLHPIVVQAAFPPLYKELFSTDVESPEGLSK

[2] = Kinetic aqueous solubility of the compound; format: physicochemical; settings: buffer; read-out: Kinetic_solubility
[3] = Percentage unbound in human plasma; format: ADME, cell-free
[4] = Percentage unbound in rat plasma; format: ADME, cell-free
[5] = target: T2, Nuclear receptor ROR-alpha (Homo sapiens, UniProt P35398); experiment: Inverse agonist activity at RORalpha (unknown origin)
T2 sequence (P35398 whole entry): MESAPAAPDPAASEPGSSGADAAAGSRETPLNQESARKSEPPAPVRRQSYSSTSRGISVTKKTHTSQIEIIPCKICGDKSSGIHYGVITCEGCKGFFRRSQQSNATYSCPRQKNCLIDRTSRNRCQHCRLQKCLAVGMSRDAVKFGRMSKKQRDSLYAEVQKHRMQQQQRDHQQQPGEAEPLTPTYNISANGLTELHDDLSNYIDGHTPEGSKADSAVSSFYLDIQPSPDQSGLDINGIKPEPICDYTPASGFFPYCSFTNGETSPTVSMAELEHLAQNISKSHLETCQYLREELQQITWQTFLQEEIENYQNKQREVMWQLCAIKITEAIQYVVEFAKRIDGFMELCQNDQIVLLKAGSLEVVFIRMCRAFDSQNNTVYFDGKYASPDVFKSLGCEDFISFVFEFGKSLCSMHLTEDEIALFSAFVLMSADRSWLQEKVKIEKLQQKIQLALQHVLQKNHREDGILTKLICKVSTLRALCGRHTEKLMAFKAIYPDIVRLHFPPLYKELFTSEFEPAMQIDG

[6] = target: T3, Nuclear receptor ROR-beta (Homo sapiens, UniProt Q92753); experiment: Inverse agonist activity at RORbeta (unknown origin)
T3 sequence (Q92753 whole entry): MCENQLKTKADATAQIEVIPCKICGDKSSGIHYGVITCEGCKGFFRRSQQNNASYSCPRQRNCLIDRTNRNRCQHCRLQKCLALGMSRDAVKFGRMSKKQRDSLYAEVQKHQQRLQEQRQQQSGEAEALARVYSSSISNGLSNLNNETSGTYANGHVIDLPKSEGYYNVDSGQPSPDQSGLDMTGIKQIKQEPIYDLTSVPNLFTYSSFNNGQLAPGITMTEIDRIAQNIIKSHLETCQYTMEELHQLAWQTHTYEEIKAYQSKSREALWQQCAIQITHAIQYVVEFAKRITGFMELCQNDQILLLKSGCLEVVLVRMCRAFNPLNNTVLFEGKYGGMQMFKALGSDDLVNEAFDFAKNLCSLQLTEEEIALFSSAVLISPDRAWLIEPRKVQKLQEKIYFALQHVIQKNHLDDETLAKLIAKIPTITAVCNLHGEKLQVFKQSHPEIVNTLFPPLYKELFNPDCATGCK

[7] = target: T4, Nuclear receptor subfamily 1 group I member 2 (Homo sapiens, UniProt O75469); experiment: Activation of PXR (unknown origin)
T4 sequence (O75469 whole entry): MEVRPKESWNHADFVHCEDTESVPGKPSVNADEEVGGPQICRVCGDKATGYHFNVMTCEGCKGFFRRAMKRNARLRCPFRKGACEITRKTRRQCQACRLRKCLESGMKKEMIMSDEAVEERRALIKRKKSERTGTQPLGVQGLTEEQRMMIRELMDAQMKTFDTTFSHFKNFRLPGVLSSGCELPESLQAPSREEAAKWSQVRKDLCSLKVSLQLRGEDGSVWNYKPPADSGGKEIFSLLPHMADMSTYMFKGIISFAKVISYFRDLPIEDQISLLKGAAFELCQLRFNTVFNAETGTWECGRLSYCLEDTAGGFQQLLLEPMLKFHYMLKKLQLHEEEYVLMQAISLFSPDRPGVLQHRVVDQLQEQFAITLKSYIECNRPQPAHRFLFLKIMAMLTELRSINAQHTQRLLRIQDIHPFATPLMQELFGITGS

[8] = target: T5, Nuclear receptor ROR-gamma (Homo sapiens, UniProt P51449); experiment: Inverse agonist activity at RORgamma (unknown origin) transfected in HEK293T cells after 16 to 20 hrs by GAL4 luciferase reporter gene assay; format: functional, cell-based, HEK-293T
T5 sequence (P51449 whole entry): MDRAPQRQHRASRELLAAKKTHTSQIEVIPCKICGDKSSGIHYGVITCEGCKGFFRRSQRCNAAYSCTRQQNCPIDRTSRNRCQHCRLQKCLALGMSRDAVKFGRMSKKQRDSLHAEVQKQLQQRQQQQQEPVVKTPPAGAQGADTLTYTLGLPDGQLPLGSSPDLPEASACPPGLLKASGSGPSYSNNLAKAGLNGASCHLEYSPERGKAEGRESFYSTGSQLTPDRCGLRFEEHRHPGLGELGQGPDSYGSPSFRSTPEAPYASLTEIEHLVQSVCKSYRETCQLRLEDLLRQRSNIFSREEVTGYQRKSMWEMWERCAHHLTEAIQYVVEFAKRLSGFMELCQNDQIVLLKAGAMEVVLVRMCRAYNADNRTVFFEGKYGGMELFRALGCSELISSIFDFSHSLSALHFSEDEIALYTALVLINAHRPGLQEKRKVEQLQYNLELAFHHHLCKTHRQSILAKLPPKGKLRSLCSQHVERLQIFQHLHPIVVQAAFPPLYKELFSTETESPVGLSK

Row | Structure (SMILES) | EC50 [1] [nM] | solubility kinetic [2] [µg/mL] | fraction unbound [3] | fraction unbound [4] | EC50 [5] [nM] | EC50 [6] [nM] | EC50 [7] [nM] | EC50 [8] [nM]
1 | [2H]C([2H])([2H])N(C(=O)c1c(F)cccc1Cl)c1ccc(-c2cc(C(N)=O)nn2C(C)C)cc1OCC(F)(F)F | 2000 | 32 (≈ 62 µM) | 0.059 | 0.031 |  |  |  | 
2 | [2H]C([2H])([2H])N(C(=O)c1c(F)cccc1Cl)c1ccc(-c2cnn(C)c2C(C)C)cc1OCC(F)(F)F | 818 | < 0.1 | 0.009 | 0.006 |  |  |  | 
3 | [2H]C([2H])([2H])N(C(=O)c1c(F)cccc1Cl)c1ccc(-c2cc(NC(C)=O)nn2C(C)C)cc1OCC(F)(F)F |  | 27 (≈ 50.9 µM) |  |  |  |  |  | 
4 | [2H]C([2H])([2H])N(C(=O)c1c(F)cccc1Cl)c1ccc(-c2cc(NC(C)=O)nn2C(C)C)cc1OCC1CCC1 | 3110 |  |  |  | 1200 | 900 | > 10000 | 
5 | [2H]C([2H])([2H])N(C(=O)c1c(F)cccc1Cl)c1ccc(-c2cc(NC(C)=O)nn2C(C)C)cc1OCC(C)C |  |  | 0.003 | 0.002 |  |  |  | 
6 | [2H]C([2H])([2H])N(C(=O)c1c(F)cccc1Cl)c1ccc(-c2cc(NC(C)=O)nn2C(C)C)cc1N1CCCC1 |  | 12 (≈ 24 µM) | 0.017 | 0.009 | 1400 | 1000 | 800 | 
7 | [2H]C([2H])([2H])N(C(=O)c1c(F)cccc1Cl)c1ccc(-c2cc(NC(C)=O)nn2C(C)C)cc1N1CCCCC1 | 11 | 1.3 (≈ 2.52 µM) | 0.004 | 0.001 | 1100 | 800 | > 10000 | 
8 | [2H]C([2H])([2H])N(C(=O)c1c(F)cccc1Cl)c1ccc(-c2cc(NC(C)=O)nn2C(C)C)cc1-c1ccccc1 |  |  | 0.004 | 0.004 | 2100 | 1100 | > 10000 | 
9 | CC(=O)Nc1cc(-c2ccc(N(C)C(=O)c3c(F)cccc3Cl)c(N3CC4CC4C3)c2)n(C(C)C)n1 (stereo not drawn) | 110 |  | 0.009 | 0.002 | 1900 | 1700 |  | 
10 | [2H]C([2H])([2H])N(C(=O)c1c(Cl)cccc1Cl)c1ccc(-c2cc(NC(C)=O)nn2C(C)C)cc1N1CC2CC2C1 (stereo not drawn) | 73 | 0.8 (≈ 1.51 µM) | 0.004 | 0.001 | 1500 | 600 | 500 | 
11 | [2H]C([2H])([2H])N(C(=O)c1c(C)cccc1F)c1ccc(-c2cc(NC(C)=O)nn2C(C)C)cc1N1CC2CC2C1 (stereo not drawn) | 355 | 17 (≈ 34.5 µM) | 0.011 | 0.002 | 2000 | 1500 | > 10000 | 
12 | [2H]C([2H])([2H])N(C(=O)c1c(F)cccc1Cl)c1ncc(-c2cc(NC(C)=O)nn2C(C)C)cc1N1CC2CC2C1 (stereo not drawn) |  | 48 (≈ 93.4 µM) | 0.056 | 0.022 | > 10000 | 6200 | 1300 | 
13 | [2H]C([2H])([2H])N(C(=O)c1c(F)cccc1Cl)c1ccc(-c2cc(NC(=O)CC)nn2C(C)C)cc1N1CC2CC2C1 (stereo not drawn) | 33 |  |  |  |  |  |  | 
14 | [2H]C([2H])([2H])N(C(=O)c1c(F)cccc1Cl)c1ccc(-c2cc(NC(=O)C3CC3)nn2C(C)C)cc1N1CC2CC2C1 (stereo not drawn) | 88 |  |  |  |  |  |  | 
15 | [2H]C([2H])([2H])N(C(=O)c1c(F)cccc1Cl)c1ccc(-c2cc(NC(=O)C(C)C)nn2C(C)C)cc1N1CC2CC2C1 (stereo not drawn) | 128 |  |  |  |  |  |  | 15
16 | [2H]C([2H])([2H])N(C(=O)c1c(F)cccc1Cl)c1ccc(-c2cc(NC(=O)[C@H]3C[C@@H](O)C3)nn2C(C)C)cc1N1CC2CC2C1 (stereo partly drawn) | 134 |  |  |  |  |  |  | 
17 | [2H]C([2H])([2H])N(C(=O)c1c(F)cccc1Cl)c1ccc(-c2cc(NC(=O)[C@H]3C[C@H](O)C3)nn2C(C)C)cc1N1CC2CC2C1 (stereo partly drawn) | 134 |  |  |  |  |  |  | 
18 | [2H]C([2H])([2H])N(C(=O)c1c(F)cccc1Cl)c1ccc(-c2cc(NC(=O)CO)nn2C(C)C)cc1N1CC2CC2C1 (stereo not drawn) | 120 |  |  |  |  |  |  | 
19 | [2H]C([2H])([2H])N(C(=O)c1c(F)cccc1Cl)c1ccc(-c2cc(NC(=O)NC)nn2C(C)C)cc1N1CC2CC2C1 (stereo not drawn) | 354 |  |  |  |  |  |  | 
20 | [2H]C([2H])([2H])N(C(=O)c1c(F)cccc1Cl)c1ccc(-c2cc(NC(=O)N3CC4(COC4)C3)nn2C(C)C)cc1N1CC2CC2C1 (stereo not drawn) | 148 |  |  |  |  |  |  | 
21 | [2H]C([2H])([2H])N(C(=O)c1c(F)cccc1Cl)c1ccc(-c2cc(NC(=O)NC(CO)CO)nn2C(C)C)cc1N1CC2CC2C1 (stereo not drawn) |  |  |  |  |  |  |  | 71
22 | [2H]C([2H])([2H])N(C(=O)c1c(F)cccc1Cl)c1ccc(-c2cc(NC(=O)OC3(C)CC3)nn2C(C)C)cc1N1CC2CC2C1 (stereo not drawn) |  |  |  |  |  |  |  | 150
23 | [2H]C([2H])([2H])N(C(=O)c1c(F)cccc1Cl)c1ccc(-c2cc(NC(C)=O)nn2C2CCCC2)cc1N1CC2CC2C1 (stereo not drawn) | 60 | 0.1 (≈ 0.186 µM) | 0.002 | < 0.0005 | 1300 | 1300 | 500 | 
24 | [2H]C([2H])([2H])N(C(=O)c1c(F)cccc1Cl)c1ccc(-c2cc(NC(C)=O)nn2C2CCC2)cc1N1CC2CC2C1 (stereo not drawn) | 199 | 0.5 (≈ 0.952 µM) | 0.003 | 0.0004 |  |  |  | 
25 | [2H]C([2H])([2H])N(C(=O)c1c(F)cccc1Cl)c1ccc(-c2cc(NC(C)=O)nn2CC(C)(C)C)cc1N1CC2CC2C1 (stereo not drawn) |  | 0.8 (≈ 1.48 µM) |  |  |  |  |  | 
26 | [2H]C([2H])([2H])N(C(=O)c1c(F)cccc1Cl)c1ccc(-c2cc(NC(C)=O)nn2CC2CC2)cc1N1CC2CC2C1 (stereo not drawn) | 201 | 10.1 (≈ 19.2 µM) | 0.005 | 0.002 | 1800 | 1800 | 8800 | 
27 | [2H]C([2H])([2H])N(C(=O)c1c(F)cccc1Cl)c1ccc(-c2cc(NC(C)=O)nn2C(C)C2CC2)cc1N1CC2CC2C1 (stereo not drawn) |  | 0.5 (≈ 0.928 µM) |  |  | 9300 | 1300 | 900 | 
28 | CC(=O)Nc1nc(C(C)C)c(-c2cnc(N(C)C(=O)c3c(F)cccc3Cl)c(N3CCCCC3)c2)s1 |  | 0.3 (≈ 0.566 µM) | 0.003 | 0.002 | 2200 | 800 | 400 | 

Reference: ChEMBL document CHEMBL3596090, “Discovery of novel pyrazole-containing benzamides as potent RORγ inverse agonists” (Bioorg Med Chem Lett, 2015)
